Results: ChEMBL document CHEMBL1201862, “PubChem BioAssay data set” (2004)
Activity calls are given as the source filed them.

Legend:
[1] = HepG2 cell cytotoxicity, dose response, cytotoxicity control, ATP luminescence, cherry-pick, activator set 2 (AID 1053143); format: functional, cell-based
[2] = A Cell-Based Confirmatory Screen for Compounds that Inhibit VEEV, TC-83 (8).; format: functional
[3] = target: Galanin receptor type 3 (Homo sapiens, UniProt O60755); assay: Fluorescence-based cell-based primary high throughput dose response assay to identify antagonists of the Galanin Receptor 3 (GalR3).; format: functional
Chain of Galanin receptor type 3 (O60755 whole entry): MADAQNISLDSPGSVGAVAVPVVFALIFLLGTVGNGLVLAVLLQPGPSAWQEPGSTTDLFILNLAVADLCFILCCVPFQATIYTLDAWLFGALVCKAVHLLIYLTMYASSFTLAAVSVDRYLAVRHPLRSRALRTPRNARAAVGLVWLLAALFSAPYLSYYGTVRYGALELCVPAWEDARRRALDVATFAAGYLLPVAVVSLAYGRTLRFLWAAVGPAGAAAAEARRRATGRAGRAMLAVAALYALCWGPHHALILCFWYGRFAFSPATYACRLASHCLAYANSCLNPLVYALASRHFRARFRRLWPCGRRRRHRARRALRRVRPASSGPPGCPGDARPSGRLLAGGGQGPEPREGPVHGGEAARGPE

[4] = cells; format: functional, cell-based; settings: HEK-CNG
[5] = target: COUP transcription factor 2 (Homo sapiens, UniProt P24468); assay: Luminescence-based cell-based high throughput dose response assay to identify inhibitors of COUP-TFII (NR2F2).; format: functional;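 note: HEK293 cells transiently cotransfected with COUP-TFII expression vector and reporter; luciferase reporter luminescence driven by COUP-TFII from the pX2-168 reporter plasmid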
Chain of COUP transcription factor 2 (P24468 whole entry): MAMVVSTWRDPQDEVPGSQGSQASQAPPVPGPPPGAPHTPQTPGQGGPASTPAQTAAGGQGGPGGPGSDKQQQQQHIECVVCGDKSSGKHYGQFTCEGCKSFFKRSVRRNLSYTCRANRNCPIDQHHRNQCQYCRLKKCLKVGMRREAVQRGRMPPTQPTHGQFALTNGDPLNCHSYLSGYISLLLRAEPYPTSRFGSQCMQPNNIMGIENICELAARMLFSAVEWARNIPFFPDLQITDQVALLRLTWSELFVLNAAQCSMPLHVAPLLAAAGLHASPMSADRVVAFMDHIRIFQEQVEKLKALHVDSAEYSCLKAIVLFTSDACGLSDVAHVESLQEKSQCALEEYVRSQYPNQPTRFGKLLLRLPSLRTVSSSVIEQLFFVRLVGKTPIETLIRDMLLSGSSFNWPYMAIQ

[6] = target: Metabotropic glutamate receptor 5 (Rattus norvegicus, UniProt P31424); assay: Identification of a glycine sulfonamide based non-MPEP site positive allosteric potentiator (PAM) of mGlu5 (calcium_assay).; format: functional
Chain of Metabotropic glutamate receptor 5 (P31424 whole entry): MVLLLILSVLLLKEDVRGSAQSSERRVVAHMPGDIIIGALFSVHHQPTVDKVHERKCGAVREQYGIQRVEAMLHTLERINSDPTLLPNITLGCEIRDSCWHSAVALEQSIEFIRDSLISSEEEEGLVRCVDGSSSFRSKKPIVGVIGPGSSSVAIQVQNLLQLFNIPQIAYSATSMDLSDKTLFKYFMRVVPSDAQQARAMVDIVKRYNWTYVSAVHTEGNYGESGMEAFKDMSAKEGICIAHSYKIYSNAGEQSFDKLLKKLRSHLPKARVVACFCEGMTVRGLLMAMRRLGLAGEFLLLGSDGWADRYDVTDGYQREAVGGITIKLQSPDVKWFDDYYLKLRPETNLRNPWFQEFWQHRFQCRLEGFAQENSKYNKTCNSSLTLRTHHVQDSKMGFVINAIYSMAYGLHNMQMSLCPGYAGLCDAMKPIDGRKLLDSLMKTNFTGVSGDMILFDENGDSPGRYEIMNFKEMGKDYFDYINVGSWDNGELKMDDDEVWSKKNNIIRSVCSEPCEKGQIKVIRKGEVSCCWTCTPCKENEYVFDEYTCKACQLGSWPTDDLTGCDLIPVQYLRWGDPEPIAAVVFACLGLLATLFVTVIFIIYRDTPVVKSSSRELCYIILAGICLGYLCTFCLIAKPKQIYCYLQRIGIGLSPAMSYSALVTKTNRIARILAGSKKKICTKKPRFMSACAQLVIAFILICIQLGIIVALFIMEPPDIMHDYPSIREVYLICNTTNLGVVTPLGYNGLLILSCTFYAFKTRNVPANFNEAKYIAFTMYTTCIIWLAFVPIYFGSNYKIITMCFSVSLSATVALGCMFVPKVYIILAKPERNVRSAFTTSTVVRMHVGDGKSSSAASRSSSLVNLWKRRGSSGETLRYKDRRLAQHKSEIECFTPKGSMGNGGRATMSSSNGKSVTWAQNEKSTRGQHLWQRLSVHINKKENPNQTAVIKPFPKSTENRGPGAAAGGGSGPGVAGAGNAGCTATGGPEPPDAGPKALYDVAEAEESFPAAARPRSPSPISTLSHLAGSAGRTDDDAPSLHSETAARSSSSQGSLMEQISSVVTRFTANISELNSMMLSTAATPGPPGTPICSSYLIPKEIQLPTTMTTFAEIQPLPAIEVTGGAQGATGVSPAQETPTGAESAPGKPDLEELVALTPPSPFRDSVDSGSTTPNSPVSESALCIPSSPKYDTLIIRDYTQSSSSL

[7] = target: Metabotropic glutamate receptor 3 (Rattus norvegicus, UniProt P31422); assay: mGlu3 NAM potency via calcium readout, dose response, mGlu3 NAM project, TREx293 cells, Galpha15, calcium flux (AID 651840); format: functional
[8] = target: Paired box protein Pax-8 (Homo sapiens, UniProt Q06710); assay: inhibitors of PAX8-driven TPO luciferase reporter, dose response, RMG-I cells, cherry-pick (AID 687027); format: functional, cell-based;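 note: luciferase reporter driven by Pax8 target thyroperoxidase promoter measured by SteadyGlo luminescence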
Chain of Paired box protein Pax-8 (Q06710 whole entry): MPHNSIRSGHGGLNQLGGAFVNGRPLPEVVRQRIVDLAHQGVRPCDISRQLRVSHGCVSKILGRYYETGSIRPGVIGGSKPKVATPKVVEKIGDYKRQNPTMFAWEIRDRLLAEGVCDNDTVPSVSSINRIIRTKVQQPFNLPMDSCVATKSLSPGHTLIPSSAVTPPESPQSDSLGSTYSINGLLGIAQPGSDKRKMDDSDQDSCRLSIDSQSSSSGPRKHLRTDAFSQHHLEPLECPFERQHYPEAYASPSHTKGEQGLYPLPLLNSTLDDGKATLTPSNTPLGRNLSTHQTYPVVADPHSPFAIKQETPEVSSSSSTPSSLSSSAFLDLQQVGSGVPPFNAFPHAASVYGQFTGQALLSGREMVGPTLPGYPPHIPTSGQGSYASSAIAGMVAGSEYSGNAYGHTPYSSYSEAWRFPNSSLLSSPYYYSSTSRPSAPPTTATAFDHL

[9] = PAX2 cell-based inhibition, dose response, selectivity assay for PAX8 inhibitor project, plate reader, dry powder samples (AID 743048); format: functional;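 note: HEK293 cells carrying a WT1 promoter luciferase reporter driven by expressed Pax2; potency is for inhibition of Pax2 driven reporter signal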
[10] = PAX5 activity inhibitors, dose response, selectivity assay for PAX8 inhibitor project, cell-based, plate reader, dry powder samples (AID 743047); format: functional;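 note: HEK293 cells carrying a Pax5 driven CD19 promoter luciferase reporter; potency of inhibitors that lower reporter luminescence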
[11] = cytotoxicity in OVCAR4 cells, dose response, cytotoxicity control for PAX8 inhibitor project, cell-based, plate reader, dry powder, SA11 (AID 743150); format: functional; settings: OVCAR-4
[12] = cytotoxicity in OV-90 ovarian cancer cells, dose response, PAX8 inhibitor project, cell-based, plate reader, dry powder, SA8 (AID 743149); format: functional
[13] = cytotoxicity dependent on PAX8, dose response, cell-based, plate reader, dry powder (AID 743049); format: functional
[14] = tested on: Streptococcus sp. 'group A'; assay: growth inhibition of control SK(-) GAS strain, dose response, counter-screen for streptokinase expression inhibitor project, luminescence, kanamycin, BacTiterGlo, confirmation (AID 1900); format: functional, organism-based
[15] = target: T1, Streptokinase A (Streptococcus pyogenes serotype M1, UniProt P10520); assay: S. pyogenes streptokinase expression inhibitors, potency, dose response, plasminogen activation absorbance, OD405 (AID 1914); format: functional, Streptococcus pyogenes M1 GAS;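 note: secreted streptokinase activity via plasminogen activation per viability signal from cell pellet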
T1 sequence (P10520 whole entry): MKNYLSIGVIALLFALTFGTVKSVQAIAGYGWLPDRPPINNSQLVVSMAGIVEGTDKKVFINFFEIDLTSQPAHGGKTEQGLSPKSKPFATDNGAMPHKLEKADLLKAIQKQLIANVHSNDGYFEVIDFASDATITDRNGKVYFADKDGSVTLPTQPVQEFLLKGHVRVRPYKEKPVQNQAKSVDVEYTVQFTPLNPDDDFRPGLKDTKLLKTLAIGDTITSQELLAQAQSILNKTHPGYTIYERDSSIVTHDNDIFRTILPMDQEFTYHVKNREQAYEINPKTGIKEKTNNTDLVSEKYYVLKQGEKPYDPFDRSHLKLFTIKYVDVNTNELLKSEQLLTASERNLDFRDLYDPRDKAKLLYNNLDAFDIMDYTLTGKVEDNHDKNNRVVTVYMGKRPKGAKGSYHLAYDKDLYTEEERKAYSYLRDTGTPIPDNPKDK

[16] = tested on: Streptococcus; assay: Group A Streptococcus viability loss, dose response, counter-screen for streptokinase expression inhibitor project, luminescence, BacTiterGlo (AID 1915); format: functional, organism-based;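 note: potency for reduction of bacterial viability or growth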
[17] = cells; settings: HEK293
[18] = target: T2, Potassium channel subfamily K member 9 (Homo sapiens, UniProt Q9NPC2); assay: KCNK9 (TASK3) current inhibition by patch clamp, SAR follow-up, selectivity assay for TASK1 (KCNK3) inhibitor project, cell-based, automated electrophysiology (AID 652210); format: functional
T2 sequence (Q9NPC2 whole entry): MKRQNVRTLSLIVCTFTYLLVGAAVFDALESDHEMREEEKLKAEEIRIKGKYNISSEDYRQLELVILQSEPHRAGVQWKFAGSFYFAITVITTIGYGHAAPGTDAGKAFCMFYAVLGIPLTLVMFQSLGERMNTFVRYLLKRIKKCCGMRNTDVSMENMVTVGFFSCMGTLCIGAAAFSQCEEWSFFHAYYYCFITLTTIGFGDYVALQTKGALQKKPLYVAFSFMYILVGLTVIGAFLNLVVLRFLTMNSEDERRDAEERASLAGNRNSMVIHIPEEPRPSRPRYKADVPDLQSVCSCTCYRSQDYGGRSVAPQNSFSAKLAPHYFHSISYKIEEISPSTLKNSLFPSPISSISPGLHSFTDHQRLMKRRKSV

[19] = target: T2, Potassium channel subfamily K member 9; assay: TASK3 (KCNK9) channel inhibitors, thallium flux, SAR follow-up, selectivity assay for TASK1 inhibitor project, cell-based, FluxOR thallium flux, concentration-response (AID 652211); format: functional;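 note: potency is for inhibitors of the channel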
[20] = target: Potassium channel subfamily K member 3 (Rattus norvegicus, UniProt O54912); assay: SAR analysis for the identification of selective inhibitors of the two-pore domain potassium channel TASK1(KCNK3):Automated Electrophysiology.; format: functional
Chain of Potassium channel subfamily K member 3 (Rattus norvegicus, UniProt O54912) (O54912 whole entry, the tested form may be a part): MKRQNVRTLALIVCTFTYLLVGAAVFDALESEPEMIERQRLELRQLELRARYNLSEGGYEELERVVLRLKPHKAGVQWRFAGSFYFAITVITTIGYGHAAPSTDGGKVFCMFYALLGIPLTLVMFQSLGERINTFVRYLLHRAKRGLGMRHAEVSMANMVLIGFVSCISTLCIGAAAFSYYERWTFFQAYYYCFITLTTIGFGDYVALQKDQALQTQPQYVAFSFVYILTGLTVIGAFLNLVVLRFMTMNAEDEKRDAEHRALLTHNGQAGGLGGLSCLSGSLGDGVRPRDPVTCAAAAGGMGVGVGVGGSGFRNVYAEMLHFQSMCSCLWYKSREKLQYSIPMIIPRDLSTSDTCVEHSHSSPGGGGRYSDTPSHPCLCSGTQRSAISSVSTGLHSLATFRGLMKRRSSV

[21] = target: Potassium channel subfamily K member 3 (Homo sapiens, UniProt O14649); assay: TASK1 (KCNK3) potassium channel inhibitors, SAR follow-up, CHO cells, FluxOR thallium flux (AID 652212); format: functional
Chain of Potassium channel subfamily K member 3 (Homo sapiens, UniProt O14649) (O14649 whole entry): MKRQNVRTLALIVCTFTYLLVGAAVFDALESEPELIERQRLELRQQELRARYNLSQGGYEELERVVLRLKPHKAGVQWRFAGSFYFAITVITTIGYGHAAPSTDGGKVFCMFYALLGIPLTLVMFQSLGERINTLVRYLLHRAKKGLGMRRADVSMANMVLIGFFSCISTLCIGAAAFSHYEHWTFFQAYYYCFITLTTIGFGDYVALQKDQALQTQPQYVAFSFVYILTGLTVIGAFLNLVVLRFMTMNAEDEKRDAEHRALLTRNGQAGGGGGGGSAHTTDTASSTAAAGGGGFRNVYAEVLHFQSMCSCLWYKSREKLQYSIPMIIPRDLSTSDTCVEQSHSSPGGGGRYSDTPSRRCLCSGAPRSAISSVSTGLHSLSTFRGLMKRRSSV

[22] = target: SUMO-activating enzyme (Homo sapiens, UniProt Q9UBT2); assay: SUMOylation inhibitor hit validation, confirmation, SUMOylation inhibitor project, biochemical, AlphaScreen (AID 2018); format: functional
Chain of SUMO-activating enzyme (Q9UBE0 whole entry): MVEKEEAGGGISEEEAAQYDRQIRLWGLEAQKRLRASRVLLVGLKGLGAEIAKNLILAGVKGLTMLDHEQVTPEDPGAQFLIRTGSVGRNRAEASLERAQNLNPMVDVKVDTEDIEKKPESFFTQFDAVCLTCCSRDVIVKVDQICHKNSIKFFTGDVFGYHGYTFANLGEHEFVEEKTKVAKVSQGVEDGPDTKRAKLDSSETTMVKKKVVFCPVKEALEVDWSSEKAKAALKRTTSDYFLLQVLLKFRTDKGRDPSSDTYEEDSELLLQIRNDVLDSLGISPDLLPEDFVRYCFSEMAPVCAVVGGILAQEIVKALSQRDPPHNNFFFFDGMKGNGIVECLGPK
Chain of SUMO-activating enzyme (Q9UBT2 whole entry): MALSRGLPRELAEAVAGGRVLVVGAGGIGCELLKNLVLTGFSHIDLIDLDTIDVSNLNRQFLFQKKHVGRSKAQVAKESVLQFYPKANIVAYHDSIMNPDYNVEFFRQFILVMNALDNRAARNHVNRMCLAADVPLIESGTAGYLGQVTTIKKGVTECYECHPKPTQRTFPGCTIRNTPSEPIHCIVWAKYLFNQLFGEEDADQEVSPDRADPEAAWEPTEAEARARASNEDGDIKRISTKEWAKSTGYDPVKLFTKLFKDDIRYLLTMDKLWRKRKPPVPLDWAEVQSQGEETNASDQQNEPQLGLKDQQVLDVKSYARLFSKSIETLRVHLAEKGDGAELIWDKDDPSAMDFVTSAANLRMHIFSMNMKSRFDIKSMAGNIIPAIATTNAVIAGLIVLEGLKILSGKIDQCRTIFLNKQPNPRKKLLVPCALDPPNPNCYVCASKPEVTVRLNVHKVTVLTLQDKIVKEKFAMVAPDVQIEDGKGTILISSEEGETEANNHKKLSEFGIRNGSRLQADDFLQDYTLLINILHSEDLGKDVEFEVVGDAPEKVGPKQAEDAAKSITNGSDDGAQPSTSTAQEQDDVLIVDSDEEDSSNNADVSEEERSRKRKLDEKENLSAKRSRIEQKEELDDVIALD

[23] = cells; settings: A549

Question: Which AC50 [1] does the source give for `O=c1c2ccccc2oc2cc(-c3ccc(CN4CCOCC4)cc3)ccc12` here?
Answer: The AC50 was 26 µM (active).

Question: Which IC50 [2] does the source give for `CCN1CCN(C(c2nc3ncc([N+](=O)[O-])cc3c(=O)n2-c2ccccc2)C(c2nc3ncc([N+](=O)[O-])cc3c(=O)n2-c2ccccc2)N2CCN(CC)CC2)CC1` (stereo not drawn) here?
Answer: Its IC50 is 6.57 µM (active).

Question: With `OC[C@@H]1CN(Cc2ccc(-c3ccccc3)cc2)C[C@H](n2cnc3c(NC4CCCC4)ncnc32)O1` as the compound, how does the IC50 [3] read?
Answer: The IC50 was 0.349 µM (active).

Question: What about the EC50 [4] of the same compound?
Answer: Its EC50 is > 29.9 µM (inactive).

Question: And the IC50 [5]?
Answer: The IC50 was 6.28 µM (active).

Question: For `CC(C(=O)Nc1ccncc1)N(c1ccccc1Cl)S(C)(=O)=O` (stereo not drawn), which EC50 [6] is on record?
Answer: The EC50 was > 30 µM (inactive).

Question: Which IC50 [7] does the source give for `COc1ccc(C#Cc2ccc(C(=O)N3CCCC(=O)C3)cc2)cc1` here?
Answer: The IC50 was 2.71 µM.

Question: With `COc1cccc(-c2ccc([C@H]3[C@@H](CO)N(C(=O)Cc4ccccc4)[C@H]3C#N)cc2)c1` as the compound, how does the AC50 [8] read?
Answer: The AC50 was 19.5 µM (active).

Question: What about the AC50 [9] of the same compound?
Answer: Its AC50 is 34.4 µM (active).

Question: And the AC50 [10]?
Answer: Its AC50 is 6.07 µM (active).

Question: What about the AC50 [11] of the same compound?
Answer: Its AC50 is 10.8 µM (active).

Question: And the AC50 [12]?
Answer: Its AC50 is > 70 µM (inactive).

Question: What about the AC50 [13] of the same compound?
Answer: The AC50 was 25.5 µM (active).

Question: For `CC(C)(C)[C@H]1CCC(=O)N([C@H](CSc2ccccc2)Cc2ccccc2)CC1`, which EC50 [14] is on record?
Answer: Its EC50 is 7.1 µM (active).

Question: And the EC50 [15]?
Answer: Its EC50 is 23.2 µM (active).

Question: And the EC50 [16]?
Answer: Its EC50 is 10.3 µM (active).

Question: What about the AC50 [17] of the same compound?
Answer: Its AC50 is > 52 µM (inactive).

Question: Which IC50 [18] does the source give for `CCOc1ccccc1NC(=O)c1cccc(NC(=O)c2ccccc2)c1` here?
Answer: The IC50 was 2.14 µM (active).

Question: What about the IC50 [19] of the same compound?
Answer: Its IC50 is 1.43 µM (active).

Question: What about the IC50 [20] of the same compound?
Answer: Its IC50 is 0.06 µM (active).

Question: And the IC50 [21]?
Answer: Its IC50 is 0.121 µM (active).

Question: For `Cn1cccc1/C=N/NC(=O)c1sc2cc(Cl)ccc2c1Cl`, which IC50 [22] is on record?
Answer: The IC50 was > 100 µM (inactive).

Question: What about the AC50 [23] of the same compound?
Answer: The AC50 was 43.7 µM (active).
